Experiments:
Test in all cases: relative viability (nuclei count vs DMSO), 5 days (fraction); higher = more cells survive
201T = test system: 201T
How it was run: (§1)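 Dosing by pin tool came one day after lung cancer cell lines were seeded in 1536-well plates, using either one drug or a fixed anchor-drug dose plus five library-drug doses (not always all listed) in √10 steps. After 5 days, nuclei were counted on 4× images. Relative viability is treated-well nuclei count divided by vehicle-well nuclei count, and values are medians of duplicate plates.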

CAL-12T = test system: CAL-12T
How it was run: as §1

ChaGo-K-1 = test system: ChaGo-K-1
How it was run: as §1

EMC-BAC-2 = test system: EMC-BAC-2
How it was run: as §1

H3255 = test system: H3255
How it was run: as §1

HOP-62 = test system: HOP-62
How it was run: as §1

LXF-289 = test system: LXF-289
How it was run: as §1

NCI-H1437 = test system: NCI-H1437
How it was run: as §1

NCI-H1651 = test system: NCI-H1651
How it was run: as §1

NCI-H1734 = test system: NCI-H1734
How it was run: as §1

NCI-H1755 = test system: NCI-H1755
How it was run: as §1

NCI-H1975 = test system: NCI-H1975
How it was run: as §1

NCI-H2023 = test system: NCI-H2023
How it was run: as §1

NCI-H2085 = test system: NCI-H2085
How it was run: as §1

NCI-H2342 = test system: NCI-H2342
How it was run: as §1

NCI-H2347 = test system: NCI-H2347
How it was run: as §1

NCI-H23 = test system: NCI-H23
How it was run: as §1

NCI-H2405 = test system: NCI-H2405
How it was run: as §1

NCI-H441 = test system: NCI-H441
How it was run: as §1

NCI-H460 = test system: NCI-H460
How it was run: as §1

NCI-H838 = test system: NCI-H838
How it was run: as §1

SW 900 = test system: SW 900
How it was run: as §1

UMC-11 = test system: UMC-11
How it was run: as §1

Oc1nc(-c2ccc(C(F)(F)F)cc2)nc2c1CSCC2 [XAV939] + Cc1nc(Nc2ncc(C(=O)Nc3c(C)cccc3Cl)s2)cc(N2CCN(CCO)CC2)n1 [Dasatinib] (partner 0.075 µM) showed a relative viability (201T; first compound 0.08 µM) of 0.432, a relative viability (201T; first compound 0.253 µM) of 0.385 and a relative viability (201T; first compound 0.8 µM) of 0.443. The relative viability (201T; first compound 2.53 µM) was 0.366, the relative viability (CAL-12T; first compound 0.08 µM) was 0.572 and the relative viability (CAL-12T; first compound 0.253 µM) was 0.401. For the same molecule, the relative viability (CAL-12T; first compound 0.8 µM) was 0.308, the relative viability (CAL-12T; first compound 2.53 µM) was 0.211 and the relative viability (ChaGo-K-1; first compound 0.08 µM) was 0.654. It also gave a relative viability (ChaGo-K-1; first compound 0.253 µM) of 0.639, a relative viability (ChaGo-K-1; first compound 0.8 µM) of 0.587 and a relative viability (ChaGo-K-1; first compound 2.53 µM) of 0.56. For the same molecule, the relative viability (EMC-BAC-2; first compound 0.08 µM) was 0.321, the relative viability (EMC-BAC-2; first compound 0.253 µM) was 0.278 and the relative viability (EMC-BAC-2; first compound 0.8 µM) was 0.282. The relative viability (EMC-BAC-2; first compound 2.53 µM) was 0.23, the relative viability (H3255; first compound 0.08 µM) was 0.341 and the relative viability (H3255; first compound 0.253 µM) was 0.373. It also gave a relative viability (H3255; first compound 0.8 µM) of 0.313, a relative viability (H3255; first compound 2.53 µM) of 0.448 and a relative viability (HOP-62; first compound 0.08 µM) of 0.738. It also gave a relative viability (HOP-62; first compound 0.253 µM) of 0.659, a relative viability (HOP-62; first compound 0.8 µM) of 0.621 and a relative viability (HOP-62; first compound 2.53 µM) of 0.396. It also gave a relative viability (LXF-289; first compound 0.08 µM) of 0.179, a relative viability (LXF-289; first compound 0.253 µM) of 0.167 and a relative viability (LXF-289; first compound 0.8 µM) of 0.178. For the same molecule, the relative viability (LXF-289; first compound 2.53 µM) was 0.139, the relative viability (NCI-H1437; first compound 0.08 µM) was 0.353 and the relative viability (NCI-H1437; first compound 0.253 µM) was 0.488. The relative viability (NCI-H1437; first compound 0.8 µM) was 0.416, the relative viability (NCI-H1437; first compound 2.53 µM) was 0.654 and the relative viability (NCI-H1651; first compound 0.08 µM) was 0.389. For the same molecule, the relative viability (NCI-H1651; first compound 0.253 µM) was 0.366, the relative viability (NCI-H1651; first compound 0.8 µM) was 0.362 and the relative viability (NCI-H1651; first compound 2.53 µM) was 0.401. The relative viability (NCI-H1734; first compound 0.08 µM) was 0.501, the relative viability (NCI-H1734; first compound 0.253 µM) was 0.476 and the relative viability (NCI-H1734; first compound 0.8 µM) was 0.419. For the same molecule, the relative viability (NCI-H1734; first compound 2.53 µM) was 0.357, the relative viability (NCI-H1755; first compound 0.08 µM) was 0.484 and the relative viability (NCI-H1755; first compound 0.253 µM) was 0.324. It also gave a relative viability (NCI-H1755; first compound 0.8 µM) of 0.424, a relative viability (NCI-H1755; first compound 2.53 µM) of 0.413 and a relative viability (NCI-H1975; first compound 0.08 µM) of 0.305. For the same molecule, the relative viability (NCI-H1975; first compound 0.253 µM) was 0.264, the relative viability (NCI-H1975; first compound 0.8 µM) was 0.286 and the relative viability (NCI-H1975; first compound 2.53 µM) was 0.234. For the same molecule, the relative viability (NCI-H2023; first compound 0.08 µM) was 0.512, the relative viability (NCI-H2023; first compound 0.253 µM) was 0.397 and the relative viability (NCI-H2023; first compound 0.8 µM) was 0.334. It also gave a relative viability (NCI-H2023; first compound 2.53 µM) of 0.336, a relative viability (NCI-H2085; first compound 0.08 µM) of 0.288 and a relative viability (NCI-H2085; first compound 0.253 µM) of 0.196. For the same molecule, the relative viability (NCI-H2085; first compound 0.8 µM) was 0.285, the relative viability (NCI-H2085; first compound 2.53 µM) was 0.204 and the relative viability (NCI-H2342; first compound 0.08 µM) was 0.309. The relative viability (NCI-H2342; first compound 0.253 µM) was 0.285, the relative viability (NCI-H2342; first compound 0.8 µM) was 0.326 and the relative viability (NCI-H2342; first compound 2.53 µM) was 0.254. For the same molecule, the relative viability (NCI-H2347; first compound 0.08 µM) was 0.258, the relative viability (NCI-H2347; first compound 2.53 µM) was 0.335 and the relative viability (NCI-H23; first compound 0.08 µM) was 0.872. The relative viability (NCI-H23; first compound 0.253 µM) was 0.7, the relative viability (NCI-H23; first compound 0.8 µM) was 0.895 and the relative viability (NCI-H23; first compound 2.53 µM) was 0.722. The relative viability (NCI-H2405; first compound 0.08 µM) was 0.221, the relative viability (NCI-H2405; first compound 0.253 µM) was 0.225 and the relative viability (NCI-H2405; first compound 0.8 µM) was 0.214. The relative viability (NCI-H2405; first compound 2.53 µM) was 0.229, the relative viability (NCI-H441; first compound 0.08 µM) was 0.602 and the relative viability (NCI-H441; first compound 0.253 µM) was 0.66. For the same molecule, the relative viability (NCI-H441; first compound 0.8 µM) was 0.779, the relative viability (NCI-H441; first compound 2.53 µM) was 0.536 and the relative viability (NCI-H460; first compound 0.08 µM) was 0.479. The relative viability (NCI-H460; first compound 0.253 µM) was 0.533, the relative viability (NCI-H460; first compound 0.8 µM) was 0.482 and the relative viability (NCI-H460; first compound 2.53 µM) was 0.467. For the same molecule, the relative viability (NCI-H838; first compound 0.08 µM) was 0.217, the relative viability (NCI-H838; first compound 0.253 µM) was 0.256 and the relative viability (NCI-H838; first compound 0.8 µM) was 0.284. For the same molecule, the relative viability (NCI-H838; first compound 2.53 µM) was 0.212, the relative viability (SW 900; first compound 0.08 µM) was 0.545 and the relative viability (SW 900; first compound 0.253 µM) was 0.463. The relative viability (SW 900; first compound 0.8 µM) was 0.51, the relative viability (SW 900; first compound 2.53 µM) was 0.435 and the relative viability (UMC-11; first compound 0.08 µM) was 0.542. The relative viability (UMC-11; first compound 0.253 µM) was 0.396, the relative viability (UMC-11; first compound 0.8 µM) was 0.427 and the relative viability (UMC-11; first compound 2.53 µM) was 0.408.
